# Measured values published in PubChem BioAssay (NCI).
#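 Briefly, cells in 96-well plates were exposed to five compound concentrations for 48 h, and endpoints were estimated by linear interpolation. TGI: concentration producing complete growth inhibition.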
# Legend:
# Assay in all cases: DTP human tumour cell line panel, 48 h
# 786-0 renal = test system: 786-0 renal
# A549 NSCLC = test system: A549 NSCLC
# ACHN renal = test system: ACHN renal
# CAKI-1 renal = test system: CAKI-1 renal
# CCRF-CEM leukemia = test system: CCRF-CEM leukemia
# COLO 205 colon = test system: COLO 205 colon
# DLD-1 colon = test system: DLD-1 colon
# DMS 114 small cell lung = test system: DMS 114 small cell lung
# DMS 273 small cell lung = test system: DMS 273 small cell lung
# EKVX NSCLC = test system: EKVX NSCLC
# HCC-2998 colon = test system: HCC-2998 colon
# HCT-116 colon = test system: HCT-116 colon
# HCT-15 colon = test system: HCT-15 colon
# HL-60(TB) leukemia = test system: HL-60(TB) leukemia
# HOP-18 NSCLC = test system: HOP-18 NSCLC
# HOP-62 NSCLC = test system: HOP-62 NSCLC
# HOP-92 NSCLC = test system: HOP-92 NSCLC
# HT29 colon = test system: HT29 colon
# IGROV1 ovarian = test system: IGROV1 ovarian
# K-562 leukemia = test system: K-562 leukemia
# KM12 colon = test system: KM12 colon
# KM20L2 colon = test system: KM20L2 colon
# LOX IMVI melanoma = test system: LOX IMVI melanoma
# LXFL 529 NSCLC = test system: LXFL 529 NSCLC
# M14 melanoma = test system: M14 melanoma
# M19-MEL melanoma = test system: M19-MEL melanoma
# MALME-3M melanoma = test system: MALME-3M melanoma
# MOLT-4 leukemia = test system: MOLT-4 leukemia
# NCI-H226 lung = test system: NCI-H226 lung
# NCI-H23 lung = test system: NCI-H23 lung
# NCI-H460 lung = test system: NCI-H460 lung
# OVCAR-3 ovarian = test system: OVCAR-3 ovarian
# OVCAR-4 ovarian = test system: OVCAR-4 ovarian
# OVCAR-5 ovarian = test system: OVCAR-5 ovarian
# OVCAR-8 ovarian = test system: OVCAR-8 ovarian
# RPMI-8226 leukemia = test system: RPMI-8226 leukemia
# RXF 393 renal = test system: RXF 393 renal
# RXF-631 renal = test system: RXF-631 renal
# SF-268 CNS = test system: SF-268 CNS
# SF-295 CNS = test system: SF-295 CNS
# SF-539 CNS = test system: SF-539 CNS
# SK-MEL-2 melanoma = test system: SK-MEL-2 melanoma
# SK-MEL-28 melanoma = test system: SK-MEL-28 melanoma
# SK-MEL-5 melanoma = test system: SK-MEL-5 melanoma
# SK-OV-3 ovarian = test system: SK-OV-3 ovarian
# SN12C renal = test system: SN12C renal
# SNB-19 CNS = test system: SNB-19 CNS
# SNB-75 CNS = test system: SNB-75 CNS
# SNB-78 CNS = test system: SNB-78 CNS
# SR leukemia = test system: SR leukemia
# SW-620 colon = test system: SW-620 colon
# TK-10 renal = test system: TK-10 renal
# U251 CNS = test system: U251 CNS
# UACC-257 melanoma = test system: UACC-257 melanoma
# UACC-62 melanoma = test system: UACC-62 melanoma
# UO-31 renal = test system: UO-31 renal
# A498 renal = test system: A498 renal
# NCI-H522 lung = test system: NCI-H522 lung
# XF 498 CNS = test system: XF 498 CNS
structure (smiles),measurement,setting,value
CC(C)(C)C[P+](C)(C)c1ccccc1,TGI,786-0 renal,> 100 µM
same,TGI,A549 NSCLC,> 100 µM
same,TGI,ACHN renal,> 100 µM
same,TGI,CAKI-1 renal,> 100 µM
same,TGI,CCRF-CEM leukemia,> 100 µM
same,TGI,COLO 205 colon,> 100 µM
same,TGI,DLD-1 colon,> 100 µM
same,TGI,DMS 114 small cell lung,> 100 µM
same,TGI,DMS 273 small cell lung,> 100 µM
same,TGI,EKVX NSCLC,> 100 µM
same,TGI,HCC-2998 colon,> 100 µM
same,TGI,HCT-116 colon,> 100 µM
same,TGI,HCT-15 colon,> 100 µM
same,TGI,HL-60(TB) leukemia,> 100 µM
same,TGI,HOP-18 NSCLC,> 100 µM
same,TGI,HOP-62 NSCLC,> 100 µM
same,TGI,HOP-92 NSCLC,> 100 µM
same,TGI,HT29 colon,> 100 µM
same,TGI,IGROV1 ovarian,> 100 µM
same,TGI,K-562 leukemia,> 100 µM
same,TGI,KM12 colon,> 100 µM
same,TGI,KM20L2 colon,> 100 µM
same,TGI,LOX IMVI melanoma,> 100 µM
same,TGI,LXFL 529 NSCLC,> 100 µM
same,TGI,M14 melanoma,> 100 µM
same,TGI,M19-MEL melanoma,> 100 µM
same,TGI,MALME-3M melanoma,> 100 µM
same,TGI,MOLT-4 leukemia,> 100 µM
same,TGI,NCI-H226 lung,> 100 µM
same,TGI,NCI-H23 lung,> 100 µM
same,TGI,NCI-H460 lung,> 100 µM
same,TGI,OVCAR-3 ovarian,> 100 µM
same,TGI,OVCAR-4 ovarian,> 100 µM
same,TGI,OVCAR-5 ovarian,> 100 µM
same,TGI,OVCAR-8 ovarian,> 100 µM
same,TGI,RPMI-8226 leukemia,> 100 µM
same,TGI,RXF 393 renal,> 100 µM
same,TGI,RXF-631 renal,> 100 µM
same,TGI,SF-268 CNS,> 100 µM
same,TGI,SF-295 CNS,> 100 µM
same,TGI,SF-539 CNS,> 100 µM
same,TGI,SK-MEL-2 melanoma,> 100 µM
same,TGI,SK-MEL-28 melanoma,> 100 µM
same,TGI,SK-MEL-5 melanoma,> 100 µM
same,TGI,SK-OV-3 ovarian,> 100 µM
same,TGI,SN12C renal,> 100 µM
same,TGI,SNB-19 CNS,> 100 µM
same,TGI,SNB-75 CNS,> 100 µM
same,TGI,SNB-78 CNS,> 100 µM
same,TGI,SR leukemia,> 100 µM
same,TGI,SW-620 colon,> 100 µM
same,TGI,TK-10 renal,> 100 µM
same,TGI,U251 CNS,> 100 µM
same,TGI,UACC-257 melanoma,> 100 µM
same,TGI,UACC-62 melanoma,> 100 µM
same,TGI,UO-31 renal,> 100 µM
Cc1cc2c(cc1C)[n+]([O-])c(-c1c(Cl)cccc1Cl)c(N)[n+]2[O-],TGI,786-0 renal,> 100 µM
same,TGI,A498 renal,79.9 µM
same,TGI,A549 NSCLC,98.9 µM
same,TGI,ACHN renal,> 100 µM
same,TGI,CAKI-1 renal,95.1 µM
same,TGI,COLO 205 colon,38.4 µM
same,TGI,DLD-1 colon,> 100 µM
same,TGI,DMS 114 small cell lung,98.7 µM
same,TGI,DMS 273 small cell lung,86.3 µM
same,TGI,EKVX NSCLC,> 100 µM
same,TGI,HCC-2998 colon,> 100 µM
same,TGI,HCT-15 colon,> 100 µM
same,TGI,HL-60(TB) leukemia,> 100 µM
same,TGI,HOP-18 NSCLC,86.4 µM
same,TGI,HOP-62 NSCLC,96.8 µM
same,TGI,HOP-92 NSCLC,> 100 µM
same,TGI,HT29 colon,> 100 µM
same,TGI,IGROV1 ovarian,> 100 µM
same,TGI,K-562 leukemia,> 100 µM
same,TGI,KM12 colon,> 100 µM
same,TGI,KM20L2 colon,> 100 µM
same,TGI,LOX IMVI melanoma,> 100 µM
same,TGI,LXFL 529 NSCLC,> 100 µM
same,TGI,M14 melanoma,> 100 µM
same,TGI,M19-MEL melanoma,> 100 µM
same,TGI,MALME-3M melanoma,92.3 µM
same,TGI,MOLT-4 leukemia,> 100 µM
same,TGI,NCI-H226 lung,74.4 µM
same,TGI,NCI-H23 lung,75.8 µM
same,TGI,NCI-H460 lung,> 100 µM
same,TGI,NCI-H522 lung,28 µM
same,TGI,OVCAR-3 ovarian,99.5 µM
same,TGI,OVCAR-4 ovarian,> 100 µM
same,TGI,OVCAR-5 ovarian,> 100 µM
same,TGI,OVCAR-8 ovarian,> 100 µM
same,TGI,RPMI-8226 leukemia,> 100 µM
same,TGI,RXF-631 renal,35.7 µM
same,TGI,SF-268 CNS,> 100 µM
same,TGI,SF-295 CNS,> 100 µM
same,TGI,SF-539 CNS,> 100 µM
same,TGI,SK-MEL-2 melanoma,> 100 µM
same,TGI,SK-MEL-28 melanoma,89.6 µM
same,TGI,SK-MEL-5 melanoma,41.7 µM
same,TGI,SK-OV-3 ovarian,> 100 µM
same,TGI,SN12C renal,> 100 µM
same,TGI,SNB-19 CNS,> 100 µM
same,TGI,SNB-75 CNS,> 100 µM
same,TGI,SNB-78 CNS,> 100 µM
same,TGI,SW-620 colon,> 100 µM
same,TGI,TK-10 renal,> 100 µM
same,TGI,U251 CNS,> 100 µM
same,TGI,UACC-257 melanoma,83.6 µM
same,TGI,UACC-62 melanoma,> 100 µM
same,TGI,UO-31 renal,88.8 µM
COC(=O)C1=Cc2c(OC)cc(OC)c(OC)c2[C@H](c2cc(OC)c(OC)cc2OC)C1C(=O)OC (stereo not given in full),TGI,786-0 renal,> 100 µM
same,TGI,A498 renal,> 100 µM
same,TGI,A549 NSCLC,> 100 µM
same,TGI,ACHN renal,> 100 µM
same,TGI,CAKI-1 renal,> 100 µM
same,TGI,CCRF-CEM leukemia,> 100 µM
same,TGI,COLO 205 colon,> 100 µM
same,TGI,DLD-1 colon,> 100 µM
same,TGI,DMS 114 small cell lung,> 100 µM
same,TGI,DMS 273 small cell lung,> 100 µM
same,TGI,EKVX NSCLC,> 100 µM
same,TGI,HCC-2998 colon,> 100 µM
same,TGI,HCT-116 colon,> 100 µM
same,TGI,HCT-15 colon,> 100 µM
same,TGI,HL-60(TB) leukemia,> 100 µM
same,TGI,HOP-62 NSCLC,> 100 µM
same,TGI,HOP-92 NSCLC,> 100 µM
same,TGI,HT29 colon,> 100 µM
same,TGI,IGROV1 ovarian,> 100 µM
same,TGI,K-562 leukemia,46.9 µM
same,TGI,KM12 colon,> 100 µM
same,TGI,KM20L2 colon,> 100 µM
same,TGI,LOX IMVI melanoma,> 100 µM
same,TGI,LXFL 529 NSCLC,> 100 µM
same,TGI,M14 melanoma,> 100 µM
same,TGI,M19-MEL melanoma,> 100 µM
same,TGI,MALME-3M melanoma,> 100 µM
same,TGI,MOLT-4 leukemia,> 100 µM
same,TGI,NCI-H226 lung,> 100 µM
same,TGI,NCI-H23 lung,> 100 µM
same,TGI,NCI-H460 lung,> 100 µM
same,TGI,NCI-H522 lung,> 100 µM
same,TGI,OVCAR-3 ovarian,> 100 µM
same,TGI,OVCAR-4 ovarian,> 100 µM
same,TGI,OVCAR-5 ovarian,> 100 µM
same,TGI,OVCAR-8 ovarian,> 100 µM
same,TGI,RPMI-8226 leukemia,> 100 µM
same,TGI,RXF 393 renal,> 100 µM
same,TGI,RXF-631 renal,> 100 µM
same,TGI,SF-268 CNS,> 100 µM
same,TGI,SF-295 CNS,> 100 µM
same,TGI,SF-539 CNS,> 100 µM
same,TGI,SK-MEL-28 melanoma,> 100 µM
same,TGI,SK-MEL-5 melanoma,> 100 µM
same,TGI,SK-OV-3 ovarian,> 100 µM
same,TGI,SN12C renal,> 100 µM
same,TGI,SNB-19 CNS,> 100 µM
same,TGI,SNB-75 CNS,> 100 µM
same,TGI,SNB-78 CNS,> 100 µM
same,TGI,SW-620 colon,> 100 µM
same,TGI,TK-10 renal,> 100 µM
same,TGI,U251 CNS,> 100 µM
same,TGI,UACC-62 melanoma,> 100 µM
same,TGI,UO-31 renal,> 100 µM
same,TGI,XF 498 CNS,> 100 µM
